Test results taken from US8420049B2 (priority 2002, dated 2013).

Experiments:
[1] = In vitro metabolism of [^11C] AMP in human whole blood or plasma; assay type: in vitro ADME
Description: Human plasma was prepared from heparinized blood of a healthy volunteer. 50 μL of [^11C] AMP (39.96-70.82 GBq/μmol, 1080-1914 mCi/μmol) was added to 1 mL of plasma or heparinized whole blood at 37° C. In one series of studies, dipyridamole was added to give a concentration of 500 μM in whole blood. One hundred μL samples, which were removed from the incubation mixture at 0, 2, 5, 10, 20, and 30 minutes, were added to 350 μL of water at 0° C. and acidified with 50 μL of 5N perchloric acid. After standing for 5 minutes on ice, the protein precipitate was removed by centrifugation at 13,000×g for 1 minute in a microcentrifuge. The acid soluble supernatant was analyzed by HPLC. Chromatographic separation of the labeled adenosine phosphate esters used a Phenomenex Synergi Polar RP column (4.6×250 mm, 10 micron particle size) eluted with 0.1N perchloric acid at 2 mL/min. Radioactivity was detected by a dual BGO flow detector (Bioscan Inc., Washington D.C.). Optical detection was at 254 nm. Data from both detectors was collected and analyzed by Laura software (Bioscan Inc., Washington D.C.).

[2] = Ex vivo distribution of [^11C] AMP in mice; parameters: species or system mouse; settings: CD-1 mice, mean ± SD (n = 3)
Description: Non-fasted, male CD-1 mice (25 g) were injected via the tail vein with 15.5 MBq (418 μCi, 2.57 μg/kg) of [^11C] AMP. Three mice each were sacrificed by cervical dislocation at 5, 30, and 60 minutes after injection. The lungs, heart, kidneys, liver, spleen, intestine, stomach, and brain were quickly removed and put on ice. One femur and samples of thigh muscle and blood were also collected. The organs were weighed, and the tissue radioactivity measured with an automated gamma counter (LKB Wallac 1282 Compugamma CS Universal Gamma Counter). The percent injected dose per gram of tissue (% ID/g) was calculated by comparison with samples of a standard dilution of the initial dose. All measurements were corrected for decay.

[3] = Effect of dipyridamole treatment on uptake and distribution of [^11C] AMP in mice; assay type: in vivo, mouse; settings: 30 mg/kg dipyridamole ip 60 minutes before [^11C] AMP
Description: The effect of dipyridamole treatment on the uptake and distribution of [^11C] AMP, nine mice were given a 30 mg/kg dose of dipyridamole ip 60 minutes prior to administration of the radiotracer was determined. Three mice each were sacrificed 5, 30, and 60 minutes after injection of 23.8 MBq (642 μCi, 8.7 μg/kg) of [^11C] AMP. All tissue samples were handled as described above.

Nc1n[11cH]nc2c1ncn2[C@@H]1O[C@H](COP(=O)(O)O)[C@@H](O)[C@H]1O [[^11C] AMP, [^11C] Adenosine 5′-Monophosphate]
conversion of the tracer to adenosine ([1]; dipyridamole (500 μM) treated whole human blood, after 5 minutes): > 60%
conversion to ATP ([1]; whole human blood, 37° C., after 10 minutes): > 60%
Ex vivo mouse biodistribution ([2]; Blood, 5 minutes after iv injection): 27.94 ± 8.21 % ID/g
Ex vivo mouse biodistribution ([2]; Blood, 30 minutes after iv injection): 27.34 ± 0.41 % ID/g
Ex vivo mouse biodistribution ([2]; Blood, 60 minutes after iv injection): 24.34 ± 4.13 % ID/g
Ex vivo mouse biodistribution ([2]; Bone, 5 minutes after iv injection): 2.35 ± 0.68 % ID/g
Ex vivo mouse biodistribution ([2]; Bone, 30 minutes after iv injection): 2.57 ± 0.34 % ID/g
Ex vivo mouse biodistribution ([2]; Bone, 60 minutes after iv injection): 3.21 ± 0.48 % ID/g
Ex vivo mouse biodistribution ([2]; Brain, 5 minutes after iv injection): 0.78 ± 0.18 % ID/g
Ex vivo mouse biodistribution ([2]; Brain, 30 minutes after iv injection): 1.06 ± 0.19 % ID/g
Ex vivo mouse biodistribution ([2]; Brain, 60 minutes after iv injection): 0.80 ± 0.26 % ID/g
Ex vivo mouse biodistribution ([2]; Heart, 5 minutes after iv injection): 20.09 ± 3.24 % ID/g
Ex vivo mouse biodistribution ([2]; Heart, 30 minutes after iv injection): 18.07 ± 5.19 % ID/g
Ex vivo mouse biodistribution ([2]; Heart, 60 minutes after iv injection): 20.47 ± 2.87 % ID/g
Ex vivo mouse biodistribution ([2]; Intestine, 5 minutes after iv injection): 1.74 ± 0.41 % ID/g
Ex vivo mouse biodistribution ([2]; Intestine, 30 minutes after iv injection): 1.80 ± 0.50 % ID/g
Ex vivo mouse biodistribution ([2]; Intestine, 60 minutes after iv injection): 2.17 ± 1.06 % ID/g
Ex vivo mouse biodistribution ([2]; Kidneys, 5 minutes after iv injection): 8.88 ± 3.82 % ID/g
Ex vivo mouse biodistribution ([2]; Kidneys, 30 minutes after iv injection): 9.31 ± 2.88 % ID/g
Ex vivo mouse biodistribution ([2]; Kidneys, 60 minutes after iv injection): 6.80 ± 4.10 % ID/g
Ex vivo mouse biodistribution ([2]; Liver, 5 minutes after iv injection): 7.56 ± 3.98 % ID/g
Ex vivo mouse biodistribution ([2]; Liver, 30 minutes after iv injection): 2.99 ± 0.10 % ID/g
Ex vivo mouse biodistribution ([2]; Liver, 60 minutes after iv injection): 3.53 ± 0.55 % ID/g
Ex vivo mouse biodistribution ([2]; Lungs, 5 minutes after iv injection): 32.37 ± 4.52 % ID/g
Ex vivo mouse biodistribution ([2]; Lungs, 30 minutes after iv injection): 29.52 ± 5.42 % ID/g
Ex vivo mouse biodistribution ([2]; Lungs, 60 minutes after iv injection): 38.48 ± 3.63 % ID/g
Ex vivo mouse biodistribution ([2]; Muscle, 5 minutes after iv injection): 2.14 ± 0.61 % ID/g
Ex vivo mouse biodistribution ([2]; Muscle, 30 minutes after iv injection): 3.67 ± 0.54 % ID/g
Ex vivo mouse biodistribution ([2]; Muscle, 60 minutes after iv injection): 3.63 ± 1.04 % ID/g
Ex vivo mouse biodistribution ([2]; Spleen, 5 minutes after iv injection): 2.96 ± 1.49 % ID/g
Ex vivo mouse biodistribution ([2]; Spleen, 30 minutes after iv injection): 4.75 ± 0.67 % ID/g
Ex vivo mouse biodistribution ([2]; Spleen, 60 minutes after iv injection): 4.71 ± 1.06 % ID/g
Ex vivo mouse biodistribution ([2]; Stomach, 5 minutes after iv injection): 1.98 ± 0.36 % ID/g
Ex vivo mouse biodistribution ([2]; Stomach, 30 minutes after iv injection): 1.12 ± 0.25 % ID/g
Ex vivo mouse biodistribution ([2]; Stomach, 60 minutes after iv injection): 2.10 ± 0.98 % ID/g

OCCN(CCO)c1nc(N2CCCCC2)c2nc(N(CCO)CCO)nc(N3CCCCC3)c2n1 [dipyridamole]
effect on amount of tracer in the blood [3]: did not affect
effect on uptake of [^11C] radiotracer in the lungs ([3]; 60 minutes after injection): significantly decreased
